Reference: US10550113B2, “2-phenyl-3H-imidazo[4,5-B]pyridine derivates useful as inhibitors of mammalian tyrosine kinase ROR1 activity” (Kancera AB, priority 2015, dated 2020)

Key:
PBMC from CLL patients = test: CellTiter-Blue cell viability assay, cell toxicity in PBMC from CLL patients; format: cell-based; conditions: Homo sapiens, 50 000 cells/well, cultured 24, 48 and 72 h (time of the IC50 not stated), % cytotoxicity vs 0.2% DMSO
Description: (§1) Method for Measurement of Cell Toxicity
(§2) The CellTiter-Blue® Cell Viability Assay provides a homogeneous, fluorometric method for estimating the number of viable cells present in multi-well plates. The assay uses the indicator dye resazurin to measure the metabolic capacity of cells. Viable cells retain the ability to reduce resazurin into resorufin, which is highly fluorescent.
(§3) Stock solutions (10 or 100 mM in DMSO) of compounds were serially diluted 1:2 in 11 concentrations and 25 nL/well (100 mM stock) or 50 nL/well (10 mM stock) were acoustically dispensed in assay plates with an EDC acoustic dispenser. Final starting concentration in the assay was 20 μM (0.2% DMSO) or 100 μM (0.1% DMSO) for test compounds.
(§4) Peripheral blood mononuclear cells (PBMC) from CLL patients or healthy volunteers were seeded in assay plates (384-well black/clear, Greiner #781091) pre-dispensed with compounds, 25 μL/well, and cultured for 24, 48 and 72 h. The cell concentration was 50 000 cells/well for PBMC from CLL patients or healthy volunteers. After 24, 48 and 72 h culture, Celltiter Blue reagent was added (5 μL/well) and the plates were incubated for 2 h. The plates were read in an Envision fluorescence reader (PerkinElmer) with Ex544 nm/Em590 nm. Results were calculated as % cytotoxicity compared to background (cells treated with 0.2% DMSO).
(§5) Thus, IC50 values for cell toxicity in PBMC from CLL patients as well as healthy volunteers for some compounds of the invention are shown in Table 3.

[1] = CellTiter-Blue cell viability assay, cell toxicity in PBMC from healthy volunteers; format: cell-based; conditions: human, 50 000 cells/well, cultured 24, 48 and 72 h (time of the IC50 not stated), % cytotoxicity vs 0.2% DMSO
Description: as §1, §2, §3, §4, §5

`CNC(=O)CNc1ccc(-c2nc3c(NC4CCN(C)CC4)c(Cl)cnc3[nH]2)cc1` [Example 294, N^2-(4-(6-chloro-7-[(1-methylpiperidin-4-yl)amino]-3H-imidazo[4,5-b]pyridin-2-yl}phenyl)-N-methylglycinamide] gave an IC50 (PBMC from CLL patients) of 360 nM and an IC50 [1] greater than 20000 nM.
`CNC(=O)CCNc1ccc(-c2nc3c(NC4CCN(C)CC4)c(Cl)cnc3[nH]2)cc1` [Example 302, N^3-(4-{6-chloro-7-[(1-methylpiperidin-4-yl)amino]-3H-imidazo[4,5-b]pyridin-2-yl}phenyl)-N-methyl-b-alaninamide] showed an IC50 (PBMC from CLL patients) of 620 nM and an IC50 [1] greater than 20000 nM.
